PubChem BioAssay (NCI)
“And” between values parts separate entries of the source, which are not always exact repeats. Equal values may be shown once.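 1) Cells in 96-well plates. 2) Compound, 48 h, 5 concentrations. 3) Linear interpolation between surrounding doses. 4) Unreached endpoint = highest concentration. GI50 = concentration required for 50% inhibition of growth. TGI marks complete inhibition of growth.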

Experiments:
Assay in all cases: NCI anticancer screen, dose series, 48 h
MDA-MB-435 = tested on: MDA-MB-435
OVCAR-3 ovarian = tested on: OVCAR-3 ovarian
OVCAR-4 ovarian = tested on: OVCAR-4 ovarian
SF-539 CNS = tested on: SF-539 CNS
SK-MEL-2 melanoma = tested on: SK-MEL-2 melanoma
SNB-75 CNS = tested on: SNB-75 CNS
SR leukemia = tested on: SR leukemia
UACC-62 melanoma = tested on: UACC-62 melanoma
UO-31 renal = tested on: UO-31 renal
NCI-H226 lung = tested on: NCI-H226 lung

Structure (SMILES)	GI50 (MDA-MB-435) [µM]	TGI (MDA-MB-435) [µM]	GI50 (OVCAR-3 ovarian) [µM]	TGI (OVCAR-3 ovarian)	GI50 (OVCAR-4 ovarian) [µM]	TGI (OVCAR-4 ovarian)	GI50 (SF-539 CNS) [µM]	TGI (SF-539 CNS)	GI50 (SK-MEL-2 melanoma) [µM]	TGI (SK-MEL-2 melanoma) [µM]	GI50 (SNB-75 CNS) [µM]	TGI (SNB-75 CNS)	GI50 (SR leukemia) [µM]	TGI (SR leukemia) [µM]	GI50 (UACC-62 melanoma) [µM]	TGI (UACC-62 melanoma)	GI50 (UO-31 renal) [µM]	TGI (UO-31 renal)	GI50 (NCI-H226 lung) [µM]	TGI (NCI-H226 lung)
N#CSCC1CC(O)(c2ccccc2)CC(c2ccc(F)cc2)O1 (stereo not drawn)	1.83	4.08	1.45	2.76 µM	2.42	8.08 µM	1.96	3.66 µM	1.66	3.39	1.44	3.24 µM	0.572	3.19	2.14	6.12 µM	1.82	6.03 µM		
O=C(NCc1ccc(Cn2c(=O)sn(-c3ccccc3)c2=O)cc1)OCc1ccc2c(Br)cc(Br)c(O)c2n1	0.427	1.59	0.267	0.738 µM	0.695	1.96 µM	0.793	2.07 µM	1.34	2.82	0.606	1.97 µM	0.376	> 100	1.03	2.24 µM	0.392	1.77 µM	1.02	2.41 µM
Nc1nc(-c2ccccc2)nc(N)c1N=O	4.57	51.9	4.17	14 µM	7.39	79.4 µM	5.69	19.5 µM	19.5	41.6	5.21	19.1 µM	3.63	54.9	3.6	14 µM	10	29.2 µM	4.87	21.2 µM
c1cc(CNCCN2CCNCC2)ccn1		> 100		> 100 µM		> 100 µM		> 100 µM		> 100		> 100 µM		> 100		> 100 µM		> 100 µM		> 100 µM
O=C(Nc1ccccc1)NS(=O)(=O)c1ccc(-n2nc3c(c2-c2ccc(Cl)cc2)Cc2ccccc2-3)cc1	16.8	52.7	18.3	54.2 µM	45.2	> 100 µM	18.8	45.6 µM	27.4	91.8	48.7	> 100 µM	2.82	7.18	12.2	30.6 µM	24.5	> 100 µM	15.5	61.9 µM
CCCCCCCCCCCC1CCCC(C)N1 (stereo not drawn)	5.01	18.2	12	28.7 µM and 121 µM	7.18	22.3 µM and 136 µM	12.2	24.8 µM and 141 µM	5.88		9.82	24 µM and 151 µM	2.63	> 100	8.12	23.6 µM and 102 µM	3.29	16.4 µM and 105 µM	16.7	36.9 µM and 166 µM
CN1CCN(c2ccc3nc(-c4ccc5nc(-c6ccc(OCCC(C)(C)C)cc6)[nH]c5c4)[nH]c3c2)CC1	1.97	3.99	5.22	16.8 µM	10.1	25.5 µM	11.5	26.1 µM	19.7	38.5	3.46	18 µM	2.9	8.05	17.3	40.1 µM	21.3	41.8 µM	23.8	52.2 µM
COc1cc2c(cc1Nc1nc(Nc3ccsc3C(N)=O)c3cc[nH]c3n1)N(C(=O)CN(C)C)CCC2(C)C	0.299	2.49	2.05	5.17 µM	3.02	6.59 µM	3.35	7.05 µM	0.515	3.63	2.7	5.9 µM	0.00596	4.6	1.77	5.44 µM	1.09	4.69 µM	0.763	4.92 µM
CCN(C(=O)c1cc(F)ccc1Oc1cncnc1N1CC2(CCN(CC3CCC(NS(=O)(=O)CC)CC3)CC2)C1)C(C)C (stereo not drawn)	> 100	> 100	> 100	> 100 µM	> 100	> 100 µM	> 100	> 100 µM	> 100	> 100	> 100	> 100 µM	> 100	> 100	> 100	> 100 µM	> 100	> 100 µM	> 100	> 100 µM
NC(=O)c1cc(-c2ccc(F)cc2)cc(-c2ccncc2)c1N	> 25	> 25	> 25	> 25 µM	> 25	> 25 µM	> 25	> 25 µM	> 25	> 25	4.99	> 25 µM	> 25	> 25	> 25	> 25 µM	7.88	> 25 µM	19.9	> 25 µM
CN(CC(=O)N(Cc1ccc(C2CCCCC2)cc1)c1ccc(C(=O)O)c(O)c1)S(=O)(=O)c1c(F)c(F)c(F)c(F)c1F	3.39	15.8	9.95	23.3 µM	14	27.8 µM	18.2	35 µM	2.2	4.76	6.07	16.7 µM	1.9	4.28	3.18	12.1 µM	12	25.8 µM	18.6	41.5 µM
COc1ccc(Cn2cc3c(c2-c2ccc(OC)cc2)CCc2cnoc2-3)cc1	0.181	0.48	0.259	0.62 µM	0.93	> 100 µM	0.307	2.13 µM			0.216	0.804 µM	0.331	1.94	0.547	> 100 µM	0.797	> 100 µM	1.36	> 100 µM
COc1cc2c(cc1C)NC(=O)/C2=C\c1cccc(Oc2ccccc2)c1	11.8	25.9	13.2	26.8 µM	14.4	35.6 µM	19.4	34.5 µM	20.1	47.1	25	49.6 µM	5.68	31.4	12.5	25.4 µM	11.7	27.5 µM	21	38.1 µM
CCOC(=O)C(=Cc1ccc(Oc2ccccc2)cc1)C(=O)OCC		6.33		19.1 µM		22.9 µM		10.3 µM		4.4		11 µM		6.07		3.26 µM		11.8 µM		12.1 µM
CC[C@@H](C(=O)[C@@H](C)[C@@H](O)[C@H](C)[C@@H]1O[C@@H]([C@@H](CC)C(=O)N(CC)CC)CC[C@@H]1C)C1O[C@]2(C=CC(=O)[C@]3(CC[C@@](C)([C@H]4CC[C@](O)(CC)[C@H](C)O4)O3)O2)[C@H](C)C[C@@H]1C (stereo partly drawn)	2.91	9.95	2.34	6.49 µM	2.96	15.3 µM	2.26	5.47 µM	2.71	7.85	1.9	17.4 µM	2.39	6.63	1.83	5.81 µM	2.42	10.2 µM	2.21	6.71 µM
Nc1nc(-c2ccc(F)cc2)c(-c2ccc3ncccc3n2)s1	> 25	> 25	12.7	> 25 µM	16.6	> 25 µM	14.4	> 25 µM	> 25	> 25	5.04	> 25 µM	> 25	> 25	> 23.2	> 25 µM	4.68	> 25 µM	11.8	> 25 µM
C[C@@H](CO)[C@@H]1CCC=C2CC[C@]3(C)[C@H](CC[C@@H]4[C@@]5(C)CCCNC(C)(C)[C@@H]5CC[C@]43C)[C@H]21	1.76	3.53	2.16	4.87 µM	1.98	5.02 µM	3.48	14.6 µM	2.08	4.29	2.19	17.2 µM	5.44	> 100	1.73	3.18 µM	2.21	6.8 µM	14.6	35.3 µM
Cc1occc1C(=S)Nc1ccc(Cl)c(C(=O)OC(C)C2CC2)c1 (stereo not drawn)		66.2		35.3 µM		40.5 µM		71.6 µM		38.4		68.9 µM		68.2		71.1 µM		30.5 µM		33.6 µM
COc1ccc(OC)c(/C=C(/C)[N+](=O)[O-])c1	2.29	6.8	1.81	3.27 µM	1.98	3.5 µM	2.29	5.04 µM	2.16	4.41	4.73	16 µM	0.316	> 100	2.06	4.54 µM	1.42	2.8 µM	13.8	27.9 µM
O=[N+]([O-])c1c(Br)sc(Br)c1[N+](=O)[O-]	2	5.28	1.71	3.2 µM	1.85	3.62 µM	2.49	6.35 µM	2.79	10.3	1.88	4.99 µM	0.633	11.7	1.87	4.68 µM	1.59	3.55 µM	3.18	13.3 µM
NCCCNCCCCN(CCCN)/[N+]([O-])=N\O				> 100 µM		> 100 µM		> 100 µM		> 100		> 100 µM		83.9		> 100 µM		> 100 µM		> 100 µM
COC(=O)C1=C(C)NC(C)=C(C(=O)OC)C1/C=C(Cl)/C=C/c1ccccc1	18.8	37.1	15.3	31.9 µM	30.4	> 100 µM	21	41.2 µM	13.4	50.4	20	54.8 µM	19.5	38.5	16.1	30.8 µM	23.9	> 100 µM	24.8	73.2 µM
Cc1c(COc2cc(OCc3cccc(C#N)c3)c(CN3C[C@H](O)C[C@@H]3C(=O)O)cc2Cl)cccc1-c1ccc2c(c1)OCCO2	17	33.6			24.7	61.4 µM	15.2	29.2 µM	18.8	41.3	13.6	27 µM	2.65	8.95	17	32.3 µM	16.6	30.2 µM	8.86	31.9 µM
O=C1C2C3C=CC(C2C(=O)N1COP(=O)(O)O)C1C2C(=O)N(COP(=O)(O)O)C(=O)C2C31 (stereo not drawn)				> 100 µM		> 100 µM		> 100 µM		> 100		> 100 µM		38.6		> 100 µM		> 100 µM		> 100 µM
C=C(Br)N(CC)CC				> 100 µM		> 100 µM		> 100 µM		> 100		> 100 µM		> 100		> 100 µM		> 100 µM		> 100 µM
CC(C)CCN=C(N)c1ccc(N2CCN(c3ccc(C(N)=NCCC(C)C)cc3)CC2)cc1	9.76	24.2	11.3	44.8 µM	3.4	33.1 µM			9.37	> 100			2.73	7.44	16.8	33.8 µM	39.5	> 100 µM	17.9	46.8 µM
S=c1cc(S)sc2c1c(=S)sc1nc3ccccn3c(=S)c12				> 100 µM		> 100 µM		> 100 µM		> 100		> 100 µM		> 100		> 100 µM		> 100 µM		> 100 µM
COc1cc(COC(=O)N(CC(=O)O)c2ccccc2)c([N+](=O)[O-])cc1OC		> 100		> 100 µM				> 100 µM				> 100 µM		> 100		> 100 µM		> 100 µM		> 100 µM
